From EP1935986B1, “Luminogenic and fluorogenic compounds and methods to detect molecules or conditions” (priority 2005, dated 2006)

Biological target: T1, QuantiLum Luciferase (Photinus pyralis, UniProt P08659)
T1 construct: purchased Promega Corporation E170
Experiment: Scaffolds: light emission of luciferin derivatives with QuantiLum luciferase alone, + Co A, + DTT, + Co A and DTT
Type: biochemical, firefly
Protocol: The DTT, Coenzyme A, and QuantiLum stock solutions are the same as those described herein.
This solution was diluted 1:1 with water to produce an enzyme solution labeled "No addition." This solution was diluted 1:1 with 400 mM DTT, pH 8.0 to produce a solution labeled +DTT. This solution was diluted 1:1 with 4 mM Coenzyme A to produce a solution labeled + Co A. Finally, this solution was diluted 1:1 with a solution having both 4 mM Coenzyme A and 400 mM DTT to produce a solution labeled +Co A & DTT.
50 µl samples of these solutions were placed in the wells of luminometer microtiter plates, row A to row G, respeutivly. Row H of the plates was given 50 µl of water.
Reactions in these plates were initiated by addition of 50 µl of solution containing QuantiLum luciferase using a 12 channel micropipette. The solutions added to the rows were: columns 1, 5, and 9 - no addition solution; columns 2, 6, and 10 - + Co A solution; columns 3, 7, and 11 + DTT solution, and; columns 4, 8, and 12 - + Co A and DTT solution. After addition of the enzyme solution to the first row on every plate, a timer was started. After addition of the enzyme solution to the last row on each plate, the plate was sealed and read on a Veritas luminometer.

[1] = Derivative Conc. 1.07, Co A + DTT
[2] = Derivative Conc. 3.13, Co A + DTT
[3] = Derivative Conc. 6.25, Co A + DTT
[4] = Derivative Conc. 12.5, Co A + DTT
[5] = Derivative Conc. 25, Co A + DTT
[6] = Derivative Conc. 50, Co A + DTT
[7] = Derivative Conc. 100, Co A + DTT

T1 sequence (P08659 whole entry): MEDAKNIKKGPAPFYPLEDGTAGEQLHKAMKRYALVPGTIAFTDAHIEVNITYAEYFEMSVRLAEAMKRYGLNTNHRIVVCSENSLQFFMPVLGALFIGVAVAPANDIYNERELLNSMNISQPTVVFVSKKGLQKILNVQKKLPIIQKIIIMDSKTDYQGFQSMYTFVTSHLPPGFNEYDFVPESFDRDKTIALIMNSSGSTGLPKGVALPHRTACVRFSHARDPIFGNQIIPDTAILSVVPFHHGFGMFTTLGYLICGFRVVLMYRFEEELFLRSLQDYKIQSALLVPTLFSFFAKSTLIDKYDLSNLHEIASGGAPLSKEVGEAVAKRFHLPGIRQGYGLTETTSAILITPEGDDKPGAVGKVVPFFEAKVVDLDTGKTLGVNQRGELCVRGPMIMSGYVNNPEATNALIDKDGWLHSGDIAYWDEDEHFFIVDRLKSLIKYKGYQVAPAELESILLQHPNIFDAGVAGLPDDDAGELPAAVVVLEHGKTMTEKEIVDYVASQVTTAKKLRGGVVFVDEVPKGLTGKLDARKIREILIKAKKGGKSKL

**Q.** How did the light emission values (Derivative Conc. 1.07, Alone) turn out when `CN(Cc1ccccc1)c1ccc2nc(C3=NC(C(=O)O)CS3)sc2c1` (stereo not shown) [methylbenzylaminoluciferin] was run?
**A.** 25907602

**Q.** And the light emission values (Derivative Conc. 1.07, Co A)?
**A.** 12863007

**Q.** What about the light emission values [1] of the same molecule?
**A.** 2037020

**Q.** What about the light emission values (Derivative Conc. 1.07, DTT) of the same molecule?
**A.** 929977

**Q.** And the light emission values (Derivative Conc. 3.13, Alone)?
**A.** 34516960

**Q.** And the light emission values (Derivative Conc. 3.13, Co A)?
**A.** 23501282

**Q.** And the light emission values [2]?
**A.** 9404429

**Q.** What about the light emission values (Derivative Conc. 3.13, DTT) of the same molecule?
**A.** 8088743

**Q.** What about the light emission values (Derivative Conc. 6.25, Alone) of the same molecule?
**A.** 43052788

**Q.** What about the light emission values (Derivative Conc. 6.25, Co A) of the same molecule?
**A.** 35730272

**Q.** And the light emission values [3]?
**A.** 19738584

**Q.** And the light emission values (Derivative Conc. 6.25, DTT)?
**A.** 21756222

**Q.** And the light emission values (Derivative Conc. 12.5, Alone)?
**A.** 50528576

**Q.** And the light emission values (Derivative Conc. 12.5, Co A)?
**A.** 50418220

**Q.** What about the light emission values [4] of the same molecule?
**A.** 30367190

**Q.** And the light emission values (Derivative Conc. 12.5, DTT)?
**A.** 36663612

**Q.** And the light emission values (Derivative Conc. 25, Alone)?
**A.** 61572912

**Q.** And the light emission values (Derivative Conc. 25, Co A)?
**A.** 63598896

**Q.** What about the light emission values [5] of the same molecule?
**A.** 42613860

**Q.** And the light emission values (Derivative Conc. 25, DTT)?
**A.** 50632712

**Q.** And the light emission values (Derivative Conc. 50, Alone)?
**A.** 73867336

**Q.** And the light emission values (Derivative Conc. 50, Co A)?
**A.** 78390592

**Q.** What about the light emission values [6] of the same molecule?
**A.** 47965140

**Q.** And the light emission values (Derivative Conc. 50, DTT)?
**A.** 54238960

**Q.** And the light emission values (Derivative Conc. 100, Alone)?
**A.** 85579872

**Q.** What about the light emission values (Derivative Conc. 100, Co A) of the same molecule?
**A.** 89117784

**Q.** And the light emission values [7]?
**A.** 48409604

**Q.** And the light emission values (Derivative Conc. 100, DTT)?
**A.** 50806656

**Q.** Which light emission values (Derivative Conc. 1.07, Alone) does the source give for `CCN(CC)c1ccc2nc(C3=NC(C(=O)O)CS3)sc2c1` (stereo not shown) [diethylaminoluciferin] here?
**A.** 656110

**Q.** And the light emission values (Derivative Conc. 1.07, Co A)?
**A.** 688887

**Q.** What about the light emission values [1] of the same molecule?
**A.** 20592

**Q.** And the light emission values (Derivative Conc. 1.07, DTT)?
**A.** 5192

**Q.** And the light emission values (Derivative Conc. 3.13, Alone)?
**A.** 2259570

**Q.** What about the light emission values (Derivative Conc. 3.13, Co A) of the same molecule?
**A.** 1941060

**Q.** What about the light emission values [2] of the same molecule?
**A.** 93423

**Q.** What about the light emission values (Derivative Conc. 3.13, DTT) of the same molecule?
**A.** 47727

**Q.** What about the light emission values (Derivative Conc. 6.25, Alone) of the same molecule?
**A.** 4009797

**Q.** What about the light emission values (Derivative Conc. 6.25, Co A) of the same molecule?
**A.** 3457051

**Q.** And the light emission values (Derivative Conc. 6.25, DTT)?
**A.** 165732

**Q.** What about the light emission values (Derivative Conc. 12.5, Alone) of the same molecule?
**A.** 5418990

**Q.** What about the light emission values (Derivative Conc. 12.5, Co A) of the same molecule?
**A.** 4485779

**Q.** What about the light emission values [4] of the same molecule?
**A.** 645536

**Q.** What about the light emission values (Derivative Conc. 12.5, DTT) of the same molecule?
**A.** 682672

**Q.** And the light emission values (Derivative Conc. 25, Alone)?
**A.** 6763022

**Q.** And the light emission values (Derivative Conc. 25, Co A)?
**A.** 5623886

**Q.** And the light emission values [5]?
**A.** 1067954

**Q.** And the light emission values (Derivative Conc. 25, DTT)?
**A.** 1304383

**Q.** What about the light emission values (Derivative Conc. 50, Alone) of the same molecule?
**A.** 8176569

**Q.** And the light emission values (Derivative Conc. 50, Co A)?
**A.** 7206157

**Q.** And the light emission values [6]?
**A.** 1538668

**Q.** What about the light emission values (Derivative Conc. 50, DTT) of the same molecule?
**A.** 1826771

**Q.** And the light emission values (Derivative Conc. 100, Alone)?
**A.** 9082149

**Q.** And the light emission values [7]?
**A.** 1960750

**Q.** What about the light emission values (Derivative Conc. 100, DTT) of the same molecule?
**A.** 2180983

**Q.** `COC(=O)[C@H]1CSC(c2ccc3cc(Oc4ccc(C(F)(F)F)cc4[N+](=O)[O-])ccc3n2)=N1` [GST #4] was tested. Which light emission values (Derivative Conc. 1.07, Alone) did it give?
**A.** 1146

**Q.** What about the light emission values (Derivative Conc. 1.07, Co A) of the same molecule?
**A.** 1533

**Q.** What about the light emission values [1] of the same molecule?
**A.** 1714

**Q.** What about the light emission values (Derivative Conc. 1.07, DTT) of the same molecule?
**A.** 1102

**Q.** What about the light emission values (Derivative Conc. 3.13, Alone) of the same molecule?
**A.** 1537

**Q.** What about the light emission values (Derivative Conc. 3.13, Co A) of the same molecule?
**A.** 1635

**Q.** And the light emission values [2]?
**A.** 2034

**Q.** What about the light emission values (Derivative Conc. 3.13, DTT) of the same molecule?
**A.** 1458

**Q.** What about the light emission values (Derivative Conc. 6.25, Alone) of the same molecule?
**A.** 1571

**Q.** And the light emission values (Derivative Conc. 6.25, Co A)?
**A.** 1562

**Q.** And the light emission values [3]?
**A.** 1730

**Q.** And the light emission values (Derivative Conc. 6.25, DTT)?
**A.** 1633

**Q.** What about the light emission values (Derivative Conc. 12.5, Alone) of the same molecule?
**A.** 1692

**Q.** What about the light emission values (Derivative Conc. 12.5, Co A) of the same molecule?
**A.** 1275

**Q.** And the light emission values [4]?
**A.** 1891

**Q.** What about the light emission values (Derivative Conc. 12.5, DTT) of the same molecule?
**A.** 1474

**Q.** What about the light emission values (Derivative Conc. 25, Alone) of the same molecule?
**A.** 1413

**Q.** What about the light emission values (Derivative Conc. 25, Co A) of the same molecule?
**A.** 1026

**Q.** What about the light emission values [5] of the same molecule?
**A.** 1640

**Q.** What about the light emission values (Derivative Conc. 25, DTT) of the same molecule?
**A.** 1492

**Q.** And the light emission values (Derivative Conc. 50, Alone)?
**A.** 1598

**Q.** And the light emission values (Derivative Conc. 50, Co A)?
**A.** 1366

**Q.** What about the light emission values [6] of the same molecule?
**A.** 1729

**Q.** What about the light emission values (Derivative Conc. 50, DTT) of the same molecule?
**A.** 1354

**Q.** What about the light emission values (Derivative Conc. 100, Alone) of the same molecule?
**A.** 2119

**Q.** And the light emission values (Derivative Conc. 100, Co A)?
**A.** 1853

**Q.** What about the light emission values [7] of the same molecule?
**A.** 1990

**Q.** What about the light emission values (Derivative Conc. 100, DTT) of the same molecule?
**A.** 1618
